Results from patent publication US9890175B2, “Taxane compound, and preparation method and use thereof” (JIANGSU TASLY DIYI PHARMACEUTICAL CO., LTD., priority 2013, dated 2018).
Where two headings read alike, the source gives them in different places.

Assays:
[1] = tested on: K562 leukemia; assay: MTT proliferation inhibition, K562; assay type: cell-based; conditions: Homo sapiens, K562, read-out: Proliferation inhibition rate, K562 Leukemia
From the text: (§1) 1. Cytotoxicity Assay Using Human Tumor Cell Lines
(§2) Paclitaxel was used as the positive drug.

[2] = tested on: A549 non-small cell lung cancer; assay: MTT proliferation inhibition, A549; assay type: cell-based; conditions: Homo sapiens, A549, read-out: Proliferation inhibition rate, A549 Non-small cell lung cancer
From the text: as §1, §2

[3] = tested on: HCT 116 colon cancer; assay: MTT proliferation inhibition, HCT 116; assay type: cell-based; conditions: Homo sapiens, HCT-116, read-out: Proliferation inhibition rate, HCT 116 Colon cancer
From the text: as §1, §2

[4] = tested on: MDA-MB-436 breast cancer cells; assay: MTT proliferation inhibition, MDA-MB-436; assay type: cell-based; conditions: Homo sapiens, MDA-MB-436, read-out: Proliferation inhibition rate, MDA-MB-436 Breast cancer
From the text: as §1, §2

[5] = tested on: LN-18; assay: MTT proliferation inhibition, LN-18; assay type: cell-based; conditions: Homo sapiens, LN-18, read-out: Proliferation inhibition rate, LN-18 Gastric canser
From the text: as §1, §2

[6] = tested on: HT-29 colon cancer; assay: MTT proliferation inhibition, HT-29; assay type: cell-based; conditions: Homo sapiens, HT-29, read-out: Proliferation inhibition rate, HT29 Colon cancer
From the text: as §1, §2

[7] = tested on: HL-60 leukemia; assay: MTT proliferation inhibition, HL-60; assay type: cell-based; conditions: Homo sapiens, HL-60, read-out: Proliferation inhibition rate, HL60 Leukemia
From the text: as §1, §2

[8] = tested on: A2780 ovarian cancer; assay: MTT proliferation inhibition, A2780; assay type: cell-based; conditions: Homo sapiens, A2780, read-out: Proliferation inhibition rate, A2780 Ovarian cancer
From the text: as §1, §2

[9] = tested on: MCF-7 breast cancer cells; assay: MTT proliferation inhibition, MCF-7; assay type: cell-based; conditions: Homo sapiens, MCF7, read-out: Proliferation inhibition rate, MCF-7 Breast cancer
From the text: as §1, §2

[10] = tested on: Hela cervical cancer; assay: MTT proliferation inhibition, HeLa; assay type: cell-based; conditions: Homo sapiens, read-out: Proliferation inhibition rate, HeLa Uterin cancer
From the text: as §1, §2

[11] = tested on: BGC-823 gastric cancer; assay: MTT proliferation inhibition, BGC-823; assay type: cell-based; conditions: Homo sapiens, BGC-823, read-out: Proliferation inhibition rate, BGC-823 Gastric cancer
From the text: as §1, §2

[12] = tested on: B16 melanoma; assay: MTT proliferation inhibition, B16; assay type: cell-based; conditions: B16, read-out: Proliferation inhibition rate, B16 Melanoma
From the text: as §1, §2

[13] = Caco-2 cell monolayer membrane transport assay (Papp and recovery); assay type: in vitro ADME; conditions: human; for Papp B→A: Caco-2, Papp B-A
From the text: Caco-2 Cell Monolayer Membrane Transport Assay
Human-derived colorectal adenocarcinoma cell line Caco-2 cell monolayer model was used to study the bidirectional transport of the target compounds from the apical (AP) side to the basolateral (BL) side and from BL side to AP side. HPLC was used for quantitative analysis to calculate transport parameters, apparent permeability coefficient (Papp) and the efflux ratio.

[14] = tested on: NCI-H460 non-small cell lung cancer; assay: MTT proliferation inhibition, NCI-H460; assay type: cell-based; conditions: Homo sapiens, NCI-H460, read-out: Proliferation inhibition rate, NCI-H460 Non-small cell lung cancer
From the text: as §1, §2

[15] = tested on: LNCaP prostate cancer; assay: MTT proliferation inhibition, LNCaP; assay type: cell-based; conditions: Homo sapiens, read-out: Proliferation inhibition rate, LNCaP Prostate cancer
From the text: as §1, §2

[16] = tested on: A375 melanoma; assay: MTT proliferation inhibition, A375; assay type: cell-based; conditions: Homo sapiens, A-375, read-out: Proliferation inhibition rate, A375 Melanoma
From the text: as §1, §2

[17] = tested on: breast cancer cell line MCF-7; assay: IC50 on breast cancer cell line MCF-7; assay type: cell-based; conditions: Homo sapiens, MCF7, 72 h, read-out: MCF-7 (IC50, nM)
Description: From the activity evaluation data of the above-mentioned preliminary screen, it can be seen that the series of taxanes derivatives synthesized in the present invention have activity. Afterward, the compounds are investigated to examine their IC50 values on breast cancer cell line MCF-7. […] Experiments for each compound were independently repeated for three times and multiple holes were used in each experiment. The exposure time of drugs was 72 hours.

[18] = tested on: Du145 prostate cancer; assay: MTT proliferation inhibition, Du145; assay type: cell-based; conditions: Homo sapiens, DU-145, read-out: Proliferation inhibition rate, DU145 Prostate cancer
From the text: as §1, §2

[19] = Caco-2, Caco-2, A-B, Mean, read-out: Papp A-B, Mean
[20] = Caco-2, Caco-2, A-B, Mean, read-out: Recovery rate in mass, Mean
[21] = Caco-2, Caco-2, A-B, Sample-01, read-out: Papp A-B, Sample-01
[22] = Caco-2, Caco-2, A-B, Sample-01, read-out: Recovery rate in mass, Sample-01
[23] = Caco-2, Caco-2, A-B, Sample-02, read-out: Papp A-B, Sample-02
[24] = Caco-2, Caco-2, A-B, Sample-02, read-out: Recovery rate in mass, Sample-02
[25] = Caco-2, Recovery rate in mass, Mean
[26] = Caco-2, Recovery rate in mass, Sample-01
[27] = Caco-2, Recovery rate in mass, Sample-02

Compound	inhibition at 1 µM [1] [%]	inhibition at 1 µM [2] [%]	inhibition at 1 µM [3] [%]	inhibition at 1 µM [4] [%]	inhibition at 1 µM [5] [%]	inhibition at 1 µM [6] [%]	inhibition at 1 µM [7] [%]	inhibition at 1 µM [8] [%]	inhibition at 1 µM [9] [%]	inhibition at 1 µM [10] [%]	inhibition at 1 µM [11] [%]	inhibition at 1 µM [12] [%]	recovery [13, 20] [%]	Papp A→B [13, 21] [×10⁻⁶ cm/s]	recovery [13, 22] [%]	Papp A→B [13, 23] [×10⁻⁶ cm/s]	recovery [13, 24] [%]	inhibition at 1 µM [14] [%]	inhibition at 1 µM [15] [%]	inhibition at 1 µM [16] [%]	further results
CCSC(=O)O[C@H]1C(=O)[C@]2(C)[C@@H](OC)C[C@H]3OC[C@@]3(OC(C)=O)[C@H]2[C@H](OC(=O)c2ccccc2)[C@]23OC(=O)O[C@H]2[C@H](OC(=O)[C@H](O)[C@@H](NC(=O)OC(C)(C)C)c2ccccc2)C(C)=C1C3(C)C [PCMI-13]	94.2	77.1	68.5	81	93.8	87.4	97.5	95.9	84.7	100	94	81.2	40.8 to 43.1	< 1.3	40.8 to 42	< 1.67	41.5 to 43.1	86.2	86.3	93.1	Papp A→B [13, 19]: < 1.67 ×10⁻⁶ cm/s; IC50 [17]: 3.89 ± 0.12 nM; inhibition at 1 µM [18]: 90.7%
CO[C@H]1C(=O)[C@]2(C)[C@@H](OC)C[C@H]3OC[C@@]3(OC(C)=O)[C@H]2[C@H](OC(=O)c2ccccc2)[C@]23OC(=O)O[C@H]2[C@H](OC(=O)[C@H](O)[C@H](CC(C)C)NC(=O)OC(C)(C)C)C(C)=C1C3(C)C [PCMI-05]	91.4	67.8	58.7	74.5	93.3	87.9	97.2	94.6	84.9	99.5	90.9	71.5	54.7	2.59	58.1	2.56	51.3	82	81.6	87.9	IC50 [17]: 4.04 ± 0.18 nM; inhibition at 1 µM [18]: 83.9%
CCSC(=O)O[C@H]1C[C@H]2OC[C@@]2(OC(C)=O)[C@H]2[C@H](OC(=O)c3ccccc3)[C@]34OC(=O)O[C@H]3[C@H](OC(=O)[C@H](O)[C@@H](NC(=O)OC(C)(C)C)c3ccccc3)C(C)=C([C@@H](OC)C(=O)[C@]12C)C4(C)C [PCMI-21]	95	74.9	70.1	83.1	94.7	87.7	96.5	96.4	88.7	99.5	93.3	75.8	72	2.32	76.6	2.58	67.5	85.5	87.4	96.7	Papp A→B [13, 19]: 2.45 ×10⁻⁶ cm/s; IC50 [17]: 3.46 ± 0.16 nM; inhibition at 1 µM [18]: 90.6%
CC[C@H]1OC(=O)[C@H](C)[C@@H](O[C@H]2C[C@@](C)(OC)[C@@H](O)[C@H](C)O2)[C@H](C)[C@@H](O[C@@H]2O[C@H](C)C[C@H](N(C)C)[C@H]2O)[C@](C)(O)C[C@@H](C)C(=O)[C@H](C)[C@@H](O)[C@]1(C)O [Erythromycin, reference compound]																					recovery [13, 25]: 99%; recovery [13, 26]: 99.6%; recovery [13, 27]: 98.5%
CO[C@H]1C(=O)[C@]2(C)[C@@H](OC(=O)N(C)C)C[C@H]3OC[C@@]3(OC(C)=O)[C@H]2[C@H](OC(=O)c2ccccc2)[C@]23OC(=O)O[C@H]2[C@H](OC(=O)[C@H](O)[C@H](CC(C)C)NC(=O)OC(C)(C)C)C(C)=C1C3(C)C [PCMI-16]	95	74.7	67.1	81.2	95.2	89.2	97.8	96.1	97.2	102	95.3	83.1	33.1	1.41	32.7	1.87	33.5	87.2	86.8	96.3	Papp A→B [13, 19]: 1.64 ×10⁻⁶ cm/s; IC50 [17]: 21.17 ± 0.21 nM; inhibition at 1 µM [18]: 91.4%
CO[C@H]1C(=O)[C@@]2(C)[C@H]([C@H](OC(=O)c3ccccc3)[C@]34OC(=O)O[C@H]3[C@H](OC(=O)[C@H](O)[C@@H](NC(=O)OC(C)(C)C)c3ccccc3)C(C)=C1C4(C)C)[C@]1(OC(C)=O)CO[C@@H]1C[C@@H]2O [PCMI-06]	93.3	75.5	67.1	77.8	94.6	87.3	97.7	96	86.3	99.9	93.6	80.7	112	1.31	128	1.13	96.6	84.7	83.6	94.4	Papp A→B [13, 19]: 1.22 ×10⁻⁶ cm/s; IC50 [17]: 16.24 ± 0.08 nM; inhibition at 1 µM [18]: 89.1%
COC(=O)O[C@H]1C[C@H]2OC[C@@]2(OC(C)=O)[C@H]2[C@H](OC(=O)c3ccccc3)[C@]34OC(=O)O[C@H]3[C@H](OC(=O)[C@H](O)[C@@H](NC(=O)OC(C)(C)C)c3ccccn3)C(C)=C([C@@H](OC)C(=O)[C@]12C)C4(C)C [PCMI-18]	94.5	78.7	68.3	82.3	94.7	85.2	97.8	95.7	96.2	98.8	94.3	81.2	88.3	2.65	85.6	2.33	90.9	88.6	84.6	95.1	Papp A→B [13, 19]: 2.49 ×10⁻⁶ cm/s; IC50 [17]: 4.12 ± 0.16 nM; inhibition at 1 µM [18]: 89.7%
CO[C@H]1C[C@H]2OC[C@@]2(OC(C)=O)[C@H]2[C@H](OC(=O)c3ccccc3)[C@]34OC(=O)O[C@H]3[C@H](OC(=O)[C@H](O)[C@H](CC(C)C)NC(=O)OC(C)(C)C)C(C)=C([C@@H](OC(=O)N(C)C)C(=O)[C@]12C)C4(C)C [PCMI-10]	90.6	70.5	65.6	77.3	93.7	86.2	97.5	95	85.9	99.9	91.2	71.4	37.3	1.25	34	0.89	40.5	81	85.9	94.2	IC50 [17]: 6.44 ± 0.18 nM; inhibition at 1 µM [18]: 88%
COCCc1ccc(OCC(O)CNC(C)C)cc1 (stereo not drawn) [Metoprolol, reference compound]																					Papp A→B ([13]; Caco-2, Papp A-B, Mean): 27.2 ×10⁻⁶ cm/s; Papp A→B ([13]; Caco-2, Papp A-B, Sample-01): 28.1 ×10⁻⁶ cm/s; Papp A→B ([13]; Caco-2, Papp A-B, Sample-02): 26.2 ×10⁻⁶ cm/s; Papp B→A ([13]; Mean): 22.7 ×10⁻⁶ cm/s; Papp B→A ([13]; Sample-01): 22.4 ×10⁻⁶ cm/s; Papp B→A ([13]; Sample-02): 23 ×10⁻⁶ cm/s; recovery [13, 25]: 99%; recovery [13, 26]: 103%; recovery [13, 27]: 95.5%
